Assay results from ChEMBL document CHEMBL5260845, “Flavone-based arylamides as potential anticancers: Design, synthesis and in vitro cell-based/cell-free evaluations” (2020).
The source made the active and inactive calls. No cut-off for these calls is given here.

Tests used:
[1] = biological target: Homeodomain-interacting protein kinase 1 (Homo sapiens) (UniProt Q86Z02); assay: Inhibition of HIPK1 (unknown origin) at 10 uM by biochemical hotspot kinase assay
[2] = biological target: Rho-associated protein kinase 1 (Homo sapiens) (UniProt Q13464); assay: Inhibition of ROCK1 (unknown origin) at 10 uM by biochemical hotspot kinase assay
[3] = biological target: Mitogen-activated protein kinase kinase kinase kinase 1 (Homo sapiens) (UniProt Q92918); assay: Inhibition of HPK1 (unknown origin) at 10 uM by biochemical hotspot kinase assay
Sequence of Mitogen-activated protein kinase kinase kinase kinase 1 (Homo sapiens) (Q92918 whole entry, looked up): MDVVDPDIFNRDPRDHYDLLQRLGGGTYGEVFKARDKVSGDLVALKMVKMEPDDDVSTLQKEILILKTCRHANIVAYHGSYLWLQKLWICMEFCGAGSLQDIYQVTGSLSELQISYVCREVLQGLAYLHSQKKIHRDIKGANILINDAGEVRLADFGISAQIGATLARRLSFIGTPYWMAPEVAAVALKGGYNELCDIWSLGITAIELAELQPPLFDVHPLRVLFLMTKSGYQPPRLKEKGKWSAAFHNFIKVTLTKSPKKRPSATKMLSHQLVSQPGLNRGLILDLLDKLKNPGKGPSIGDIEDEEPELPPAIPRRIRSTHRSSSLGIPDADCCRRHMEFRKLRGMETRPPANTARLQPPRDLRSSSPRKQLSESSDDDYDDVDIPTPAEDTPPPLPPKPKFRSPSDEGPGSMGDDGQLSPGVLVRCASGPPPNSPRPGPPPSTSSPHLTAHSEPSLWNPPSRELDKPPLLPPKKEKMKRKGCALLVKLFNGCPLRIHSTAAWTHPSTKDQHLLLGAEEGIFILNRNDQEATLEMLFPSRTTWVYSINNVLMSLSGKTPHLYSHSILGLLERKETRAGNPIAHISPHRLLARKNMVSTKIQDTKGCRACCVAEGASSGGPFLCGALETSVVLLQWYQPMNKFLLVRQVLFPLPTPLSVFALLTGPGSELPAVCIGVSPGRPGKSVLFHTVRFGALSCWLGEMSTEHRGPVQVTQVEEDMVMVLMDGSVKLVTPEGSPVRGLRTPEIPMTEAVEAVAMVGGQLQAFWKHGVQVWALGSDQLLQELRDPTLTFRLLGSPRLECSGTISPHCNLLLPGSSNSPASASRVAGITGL

SNB-75 = assay: Antiproliferative activity against human SNB-75 cells assessed as cell growth inhibition at 10 uM by SRB assay relative to control; type: functional
[4] = biological target: Fibroblast growth factor receptor 1 (Homo sapiens) (UniProt P11362); assay: Inhibition of FGFR1 (unknown origin) at 10 uM by biochemical hotspot kinase assay relative to control
[5] = biological target: Proto-oncogene tyrosine-protein kinase receptor Ret (Homo sapiens) (UniProt P07949); assay: Inhibition of RET (unknown origin) at 10 uM by biochemical hotspot kinase assay
[6] = biological target: CDK1/Cyclin E (Homo sapiens) (UniProt P06493+P24864); assay: Inhibition of CDK1/cyclin E (unknown origin) at 10 uM by biochemical hotspot kinase assay; type: protein-complex assay
Sequence of CDK1/Cyclin E (Homo sapiens) (P06493 whole entry, looked up): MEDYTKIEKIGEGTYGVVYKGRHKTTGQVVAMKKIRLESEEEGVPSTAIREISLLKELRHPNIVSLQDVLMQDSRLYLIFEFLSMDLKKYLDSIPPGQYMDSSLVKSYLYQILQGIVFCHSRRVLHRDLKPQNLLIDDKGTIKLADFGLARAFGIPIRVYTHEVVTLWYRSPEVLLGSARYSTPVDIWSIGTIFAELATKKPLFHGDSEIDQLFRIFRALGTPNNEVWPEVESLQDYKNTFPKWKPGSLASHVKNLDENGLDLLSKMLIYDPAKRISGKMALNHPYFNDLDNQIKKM
Sequence of CDK1/Cyclin E (Homo sapiens) (P24864 whole entry, looked up): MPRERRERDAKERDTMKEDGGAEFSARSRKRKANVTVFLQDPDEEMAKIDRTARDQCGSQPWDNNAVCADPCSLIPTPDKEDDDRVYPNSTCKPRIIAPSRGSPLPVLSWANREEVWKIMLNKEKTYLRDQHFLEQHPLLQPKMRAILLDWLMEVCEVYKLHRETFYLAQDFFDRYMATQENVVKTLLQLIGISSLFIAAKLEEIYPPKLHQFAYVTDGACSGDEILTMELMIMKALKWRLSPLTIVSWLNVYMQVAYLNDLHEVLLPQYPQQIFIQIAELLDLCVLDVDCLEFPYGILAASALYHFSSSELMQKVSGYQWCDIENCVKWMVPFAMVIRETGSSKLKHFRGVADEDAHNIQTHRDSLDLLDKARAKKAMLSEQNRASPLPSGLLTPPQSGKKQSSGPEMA

[7] = biological target: Death-associated protein kinase 1 (Homo sapiens) (UniProt P53355); assay: Inhibition of DAPK1 (unknown origin) at 10 uM by biochemical hotspot kinase assay
[8] = biological target: Receptor-type tyrosine-protein kinase FLT3 (Homo sapiens) (UniProt P36888); assay: Inhibition of FLT3 (unknown origin) at 10 uM by biochemical hotspot kinase assay relative to control
Sequence of Receptor-type tyrosine-protein kinase FLT3 (Homo sapiens) (P36888 whole entry): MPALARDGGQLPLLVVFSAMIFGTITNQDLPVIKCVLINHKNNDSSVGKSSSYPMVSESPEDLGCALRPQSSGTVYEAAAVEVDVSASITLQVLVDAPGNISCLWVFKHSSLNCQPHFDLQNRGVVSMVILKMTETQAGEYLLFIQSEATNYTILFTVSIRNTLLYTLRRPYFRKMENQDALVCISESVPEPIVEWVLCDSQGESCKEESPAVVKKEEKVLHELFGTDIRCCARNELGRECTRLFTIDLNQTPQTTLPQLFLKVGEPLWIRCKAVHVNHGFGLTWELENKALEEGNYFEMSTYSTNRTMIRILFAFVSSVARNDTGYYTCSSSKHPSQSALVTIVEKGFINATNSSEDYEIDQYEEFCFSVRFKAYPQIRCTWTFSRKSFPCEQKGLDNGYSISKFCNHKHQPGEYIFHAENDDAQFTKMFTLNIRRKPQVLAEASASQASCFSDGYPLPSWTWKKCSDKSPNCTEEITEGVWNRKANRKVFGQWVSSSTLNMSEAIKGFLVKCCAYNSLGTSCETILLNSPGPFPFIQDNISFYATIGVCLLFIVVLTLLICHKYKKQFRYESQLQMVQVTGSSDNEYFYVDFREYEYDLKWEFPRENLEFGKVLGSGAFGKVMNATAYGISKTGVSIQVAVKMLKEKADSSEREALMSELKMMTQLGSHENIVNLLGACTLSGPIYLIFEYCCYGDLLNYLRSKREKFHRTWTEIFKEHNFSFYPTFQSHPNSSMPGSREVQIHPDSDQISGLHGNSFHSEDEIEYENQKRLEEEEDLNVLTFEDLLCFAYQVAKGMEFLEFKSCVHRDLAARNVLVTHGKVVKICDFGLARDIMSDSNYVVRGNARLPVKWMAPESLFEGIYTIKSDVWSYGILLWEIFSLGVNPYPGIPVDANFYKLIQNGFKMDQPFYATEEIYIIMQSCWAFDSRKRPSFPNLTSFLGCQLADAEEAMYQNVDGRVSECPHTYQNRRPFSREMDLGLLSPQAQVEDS

HT-29 = assay: Induction of cell cycle arrest in human HT-29 cells assessed as accumulation of cells at G1 phase at 10 uM incubated for 24 hrs by PI staining based analysis (reference value: 40.3%); type: functional
[9] = biological target: Serine/threonine-protein kinase PAK 1 (Homo sapiens) (UniProt Q13153); assay: Inhibition of PAK1 (unknown origin) at 10 uM by biochemical hotspot kinase assay
Sequence of Serine/threonine-protein kinase PAK 1 (Homo sapiens) (Q13153 whole entry): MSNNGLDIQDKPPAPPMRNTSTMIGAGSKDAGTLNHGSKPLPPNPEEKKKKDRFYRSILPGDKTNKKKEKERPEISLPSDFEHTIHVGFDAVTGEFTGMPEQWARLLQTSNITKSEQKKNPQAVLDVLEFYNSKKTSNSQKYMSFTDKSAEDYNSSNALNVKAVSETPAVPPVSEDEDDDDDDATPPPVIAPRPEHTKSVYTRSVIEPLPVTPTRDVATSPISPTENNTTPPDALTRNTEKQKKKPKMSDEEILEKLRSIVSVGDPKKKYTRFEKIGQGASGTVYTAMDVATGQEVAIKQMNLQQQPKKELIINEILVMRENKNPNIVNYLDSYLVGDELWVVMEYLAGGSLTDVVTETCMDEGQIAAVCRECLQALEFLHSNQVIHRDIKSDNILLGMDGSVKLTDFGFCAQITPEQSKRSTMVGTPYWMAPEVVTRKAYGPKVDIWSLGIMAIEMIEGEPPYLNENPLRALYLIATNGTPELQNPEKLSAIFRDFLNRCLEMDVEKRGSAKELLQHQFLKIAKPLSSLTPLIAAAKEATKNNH

[10] = biological target: Aurora kinase A (Homo sapiens) (UniProt O14965); assay: Inhibition of Aurora A (unknown origin) at 10 uM by biochemical hotspot kinase assay
[11] = biological target: Calcium/calmodulin-dependent protein kinase type II subunit beta (Homo sapiens) (UniProt Q13554); assay: Inhibition of CAMK2B (unknown origin) at 10 uM by biochemical hotspot kinase assay relative to control
[12] = biological target: Cyclin-dependent kinase 1/cyclin B (Homo sapiens) (UniProt P06493+P14635+Q8WWL7+O95067); assay: Inhibition of CDK1/cyclin B (unknown origin) at 10 uM by biochemical hotspot kinase assay; type: protein-complex assay
[13] = biological target: Misshapen-like kinase 1 (Homo sapiens) (UniProt Q8N4C8); assay: Inhibition of MINK (unknown origin) at 10 uM by biochemical hotspot kinase assay relative to control
[14] = biological target: Serine/threonine-protein kinase PAK 2 (Homo sapiens) (UniProt Q13177); assay: Inhibition of PAK2 (unknown origin) at 10 uM by biochemical hotspot kinase assay
[15] = biological target: Ephrin type-B receptor 4 (Homo sapiens) (UniProt P54760); assay: Inhibition of EPHB4 (unknown origin) at 10 uM by biochemical hotspot kinase assay
[16] = biological target: Mitogen-activated protein kinase 15 (Homo sapiens) (UniProt Q8TD08); assay: Inhibition of ERK7 (unknown origin) at 10 uM by biochemical hotspot kinase assay
Sequence of Mitogen-activated protein kinase 15 (Homo sapiens) (Q8TD08 whole entry): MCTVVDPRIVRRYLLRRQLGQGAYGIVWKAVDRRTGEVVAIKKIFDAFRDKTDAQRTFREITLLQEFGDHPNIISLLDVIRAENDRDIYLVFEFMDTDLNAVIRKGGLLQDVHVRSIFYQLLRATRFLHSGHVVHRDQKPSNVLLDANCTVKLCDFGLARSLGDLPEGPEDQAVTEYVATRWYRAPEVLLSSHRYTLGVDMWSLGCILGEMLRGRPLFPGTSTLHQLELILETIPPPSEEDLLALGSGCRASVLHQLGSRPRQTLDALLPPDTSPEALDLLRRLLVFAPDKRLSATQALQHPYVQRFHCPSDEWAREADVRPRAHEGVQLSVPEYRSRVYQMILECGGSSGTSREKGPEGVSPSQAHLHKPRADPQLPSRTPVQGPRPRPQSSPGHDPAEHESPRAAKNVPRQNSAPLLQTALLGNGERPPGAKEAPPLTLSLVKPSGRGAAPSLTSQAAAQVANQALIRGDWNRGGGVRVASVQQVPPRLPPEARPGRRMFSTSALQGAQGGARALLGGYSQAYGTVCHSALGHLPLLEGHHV

SK-MEL-2 = assay: Antiproliferative activity against human SK-MEL-2 cells assessed as cell growth inhibition at 10 uM by SRB assay relative to control; type: functional; conditions: Homo sapiens, SK-MEL-2, dose 10 µM
NCI-H460 = assay: Antiproliferative activity against human NCI-H460 cells assessed as cell growth inhibition at 10 uM by SRB assay relative to control; type: functional

Sequence of Homeodomain-interacting protein kinase 1 (Homo sapiens) (Q86Z02 whole entry, looked up): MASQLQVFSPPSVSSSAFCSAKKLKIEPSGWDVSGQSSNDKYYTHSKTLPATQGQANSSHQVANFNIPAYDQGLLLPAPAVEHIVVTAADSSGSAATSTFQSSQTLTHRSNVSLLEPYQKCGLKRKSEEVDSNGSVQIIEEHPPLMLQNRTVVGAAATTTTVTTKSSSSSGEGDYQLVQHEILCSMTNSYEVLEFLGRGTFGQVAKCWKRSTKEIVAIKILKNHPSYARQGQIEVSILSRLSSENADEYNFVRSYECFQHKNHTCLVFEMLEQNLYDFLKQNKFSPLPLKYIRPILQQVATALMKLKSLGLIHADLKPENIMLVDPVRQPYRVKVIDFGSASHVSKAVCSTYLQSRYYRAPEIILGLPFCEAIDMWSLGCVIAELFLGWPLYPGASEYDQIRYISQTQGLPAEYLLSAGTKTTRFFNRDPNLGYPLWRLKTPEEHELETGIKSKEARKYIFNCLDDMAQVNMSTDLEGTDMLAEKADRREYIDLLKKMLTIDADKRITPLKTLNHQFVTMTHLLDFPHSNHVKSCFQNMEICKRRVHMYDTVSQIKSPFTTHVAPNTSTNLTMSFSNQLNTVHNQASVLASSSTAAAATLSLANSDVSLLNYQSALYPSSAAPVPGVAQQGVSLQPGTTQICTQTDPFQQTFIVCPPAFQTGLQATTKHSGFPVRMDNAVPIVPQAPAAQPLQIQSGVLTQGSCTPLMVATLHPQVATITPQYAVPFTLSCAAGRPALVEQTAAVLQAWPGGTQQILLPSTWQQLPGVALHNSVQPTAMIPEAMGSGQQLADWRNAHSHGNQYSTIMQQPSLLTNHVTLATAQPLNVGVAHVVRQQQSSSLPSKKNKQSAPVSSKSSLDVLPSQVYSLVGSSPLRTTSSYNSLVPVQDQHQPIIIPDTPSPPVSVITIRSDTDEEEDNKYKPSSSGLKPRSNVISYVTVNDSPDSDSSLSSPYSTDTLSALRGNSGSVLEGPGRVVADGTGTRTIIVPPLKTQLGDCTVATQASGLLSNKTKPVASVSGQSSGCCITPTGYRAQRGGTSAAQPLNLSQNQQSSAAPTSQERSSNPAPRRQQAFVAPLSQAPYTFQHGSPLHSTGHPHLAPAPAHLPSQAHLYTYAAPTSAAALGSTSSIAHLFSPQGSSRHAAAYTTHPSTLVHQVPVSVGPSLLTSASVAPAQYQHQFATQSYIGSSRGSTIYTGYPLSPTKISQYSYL

| inhibition [1] | inhibition [2] | inhibition [3] | inhibition [4] [%] | inhibition [5] | inhibition [6] | inhibition [8] [%] | inhibition [9] | inhibition [10] | inhibition [11] [%] | inhibition [12] | inhibition [13] [%] | inhibition [14] | inhibition [15] | Structure (SMILES) | inhibition at 10 µM (SNB-75) [%] | inhibition [7] | Activity (HT-29) [%] | inhibition [16] | inhibition at 10 µM (SK-MEL-2) [%] | inhibition at 10 µM (NCI-H460) [%] |
| --- | --- | --- | --- | --- | --- | --- | --- | --- | --- | --- | --- | --- | --- | --- | --- | --- | --- | --- | --- | --- |
| inactive | inactive | inactive | 16.5 | inactive | inactive | 10.7 | inactive | inactive | 1.99 | inactive | 41 | inactive | inactive | COc1cc2oc(-c3cccc(C(=O)Nc4ccc(C)cc4)c3)cc(=O)c2c(OC)c1OC | > 50 | inactive | 64 | inactive | – | – |
| – | – | – | – | – | – | – | – | – | – | – | – | – | – | COc1cc2oc(-c3cccc(C(=O)Nc4ccc(Cl)cc4)c3)cc(=O)c2c(OC)c1OC | – | – | – | – | 68.6 | 74.8 |
